Tests used:
[1] = target: Avi-humanTEAD4^217-434 / Cy5 labeled humanYAP^60-100 (Homo sapiens (Human), UniProt Q15561); experiment: In-vitro biochemical TR-FRET assay (TEAD4/YAP); type: binding; settings: 1 h at room temperature
Method: N-terminus Cy5 labeled humanYAP^60-100 (20 nM) was then added to this preparation. Compounds were dissolved at 10 mM in 100% DMSO and serial dilutions were made in 100% DMSO. The diluted compound solutions were incubated in white 384-well plates (Greiner Bio-One) for 1 h at room temperature with the above described mix. The final DMSO concentration present in the assay was 1%. […] The IC50 values were estimated by fitting the data by nonlinear fit regression (GraphPad Prism).

[2] = tested on: YAP-dependent transcription in SF268-MCAT_Luc_dox-i-shYAPLevy (Clone 13) cells; experiment: YAP reporter gene activity assay (MCAT-Luc), SF268; type: cell-based; settings: Homo sapiens, SF-268; SF268 MCAT_Luc, 24 hrs
[3] = tested on: MKN-45/Ubc-luc cells (unspecific inhibition of luciferase expression or activity); experiment: Reporter gene assay specificity control (Ubc-Luc), MKN-45; type: cell-based; settings: Homo sapiens; MKN-45/Ubc-luc specificity control, 24 hrs
Excerpt: (§1) NCI-H2052 mesothelioma cells (RRID: CVCL_1518) bearing Hippo-pathway inactivating mutations upstream of YAP (homozygous deletion of LATS2 and mutation of NF2) were obtained from ATCC (American Type Culture Collection), while SF268 glioma cells (RRID: CVCL_1689) overexpressing YAP due to genomic amplification were obtained from the NCI (National Cancer Institute). MKN-45 gastric adenocarcinoma cells (RRID: CVCL_0434) genomically deleted for YAP were obtained from the JCRB (Japanese Collection of Research Bioresources) Cell Bank.
As a specificity control, MKN-45 cells were stably transduced with a Ubc-Luc reporter construct, in which constitutive expression of firefly luciferase is driven by the promoter of the ubiquitin C housekeeping gene. The resulting cell line, MKN-45/Ubc-luc, was selected and maintained in growth medium (RPMI 1640 (Amimed Cat #1-41F01-I), 2 mM L-Glutamine (Amimed Cat #5-10K50-H), 10% fetal calf serum (Amimed Cat #2-01F30-I Lot K08815P), 1% MEM Non-essential amino acids (Amimed Cat #5-13K00-H), 1× Penicillin/Streptomycin (Amimed Cat #4-01F00-H)) containing 1 μg/ml blasticidin (Gibco Cat #A11139-03).
(§2) Stock solutions of compounds were prepared at a concentration of 10 mM in DMSO and stored at 4° C. Where necessary to afford a full dose-response curve, the stock solutions were pre-diluted in DMSO to 1′000-fold the desired reduced start concentration. On the day after cell seeding, eleven 2-fold serial dilutions of each compound were dispensed directly into the cell assay plates using a HP 300D non-contact Digital Dispenser (TECAN). The final concentration of DMSO was normalized to 0.1% in all wells.
The ability of compounds to inhibit YAP-dependent transcription was assessed in NCI-H2052 Tet-On shYAP_2371 pLenti6 MCAT_Luc and SF268-MCAT_Luc, dox-i-shYAPLevy (Clone 13) cells, while specificity (lack of unspecific inhibition of luciferase expression or activity) was assessed in MKN-45/Ubc-luc cells. The individual cell lines were seeded at 2′500 cells/20 μl/well into white-wall, clear-bottom 384-well plates (Greiner, Cat #781098) and incubated over night at 37° C. prior to addition of serial compound dilutions as described above. Following incubation for 24 hrs at 37° C., compound-mediated modulation of reporter-gene activity was quantified 5 min after addition 20 μL […] BrightGlo (Promega Cat #E2620), by measuring luminescence intensity on a multi-mode plate-reader (TECAN) with an integration time of 100 ms.
(§3) For data analysis, the assay background value determined in wells containing medium, but no cells, was subtracted from all data points.

[4] = tested on: SF268-MCAT_Luc_dox-i-shYAPLevy (Clone 13) cells; experiment: Proliferation assay (resazurin/AlamarBlue), SF268; type: cell-based; settings: Homo sapiens, SF-268; SF268, 72 hours
Excerpt: as §1, §2
(§4) After incubation for 72 hours at 37° C., compound-mediated modulation of cell viability was quantified as follows. […] To enable differentiation of cytotoxic from cytostatic compound effects, the number of viable cells on the day of compound addition (day 0) was assessed in a separate cell plate and used to assess the extent of cell viability suppression as described in the following section.
as §3
(§5) The extent of growth inhibition and potential cell kill was assessed by comparing the resorufin levels in compound-treated cells with those present at the time of compound addition. To this end, the following conditional concept was programmatically applied in HELIOS to calculate % growth (% G) for each compound-treated well: % G=(T−V0)/V0))*100 when T<V0, and % G=(T−V0)/(V−V0)))*100 when T≥V0, where V0 is the viability level at time of compound addition, while V and T represent vehicle-control and compound-treated viability levels, respectively, at the end of the compound incubation. 100%, 0% and −100% signify absence of growth inhibition, growth stasis, and complete cell kill, respectively. Compound concentrations leading to half-maximal growth inhibition (GI50) and residual cell viability at the highest tested compound concentration (Data(cmax), expressed in percent) were routinely calculated.

[5] = tested on: MKN-45/Ubc-luc cells; experiment: Proliferation assay (resazurin/AlamarBlue), MKN-45; type: cell-based; settings: Homo sapiens; MKN-45, 72 hours
Excerpt: as §1
As a specificity control, MKN-45 cells were stably transduced with a Ubc-Luc reporter construct, in which constitutive expression of firefly luciferase is driven by the promoter of the ubiquitin C housekeeping gene.
as §2, §4, §3, §5

[6] = tested on: YAP-dependent transcription in NCI-H2052 Tet-On shYAP_2371 pLenti6 MCAT_Luc cells; experiment: YAP reporter gene activity assay (MCAT-Luc), NCI-H2052; type: cell-based; settings: Homo sapiens, 24 hrs
[7] = tested on: NCI-H2052 Tet-On shYAP_2371 pLenti6 MCAT_Luc cells; experiment: Proliferation assay (resazurin/AlamarBlue), NCI-H2052; type: cell-based; settings: Homo sapiens; NCI-H2052, 72 hours
Excerpt: as §1, §2, §4, §3, §5

Sequence of Avi-humanTEAD4^217-434 / Cy5 labeled humanYAP^60-100 (Q15561 217-434): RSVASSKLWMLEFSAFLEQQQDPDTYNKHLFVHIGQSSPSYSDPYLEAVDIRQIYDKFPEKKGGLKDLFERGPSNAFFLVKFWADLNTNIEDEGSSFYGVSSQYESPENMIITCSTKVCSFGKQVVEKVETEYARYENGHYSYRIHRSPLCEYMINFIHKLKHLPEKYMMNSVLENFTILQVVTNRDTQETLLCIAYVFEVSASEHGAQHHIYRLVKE

Row | IC50 [1] [nM] | IC50 [2] [nM] | IC50 [3] [nM] | GI50 [5] [nM] | IC50 [6] [nM] | GI50 [7] [nM] | Compound | GI50 [4] [nM]
1 | 19 | 0.45 | > 2000 | > 200 | 4.2 | 31 | COc1ccc(C(N)=O)c(-c2c(Cl)c(F)cc3c2[C@H](C)[C@@](CN[C@H]2CC[C@H](C(=O)N4CCC(CC5CCN(C(=O)COc6cc(-c7scnc7C)ccc6CNC(=O)[C@@H]6C[C@@H](O)CN6C(=O)[C@@H](NC(=O)C6(F)CC6)C(C)(C)C)CC5)CC4)CC2)(c2ccccc2)O3)c1F (atropisomer, axis not shown) [Example 42, (2S,4R)-N-(2-(2-(4-((1-((1S,4r)-4-((((2S,3S,4S)-4-(6-carbamoyl-2-fluoro-3-methoxyphenyl)-5-chloro-6-fluoro-3-methyl-2-phenyl-2,3-dihydrobenzofuran-2-yl)methyl)amino)cyclohexane-1-carbonyl)piperidin-4-yl)methyl)piperidin-1-yl)-2-oxoethoxy)-4-(4-methylthiazol-5-yl)benzyl)-1-((S)-2-(1-fluorocyclopropane-1-carboxamido)-3,3-dimethylbutanoyl)-4-hydroxypyrrolidine-2-carboxamide] | 31
2 | 8.7 | 2.3 | > 2000 | > 200 | 17 | 73 | COc1ccc(C(N)=O)c(-c2c(Cl)c(F)cc3c2[C@H](C)[C@@](CN[C@H]2CC[C@H](C(=O)N4CCC(C5CCN(C(=O)COc6cc(-c7scnc7C)ccc6CNC(=O)[C@@H]6C[C@@H](O)CN6C(=O)[C@@H](NC(=O)C6(F)CC6)C(C)(C)C)CC5)CC4)CC2)(c2ccccc2)O3)c1F (atropisomer, axis not shown) [Example 43, (2S,4R)-N-(2-(2-(1′-((1S,4r)-4-((((2S,3S,4S)-4-(6-carbamoyl-2-fluoro-3-methoxyphenyl)-5-chloro-6-fluoro-3-methyl-2-phenyl-2,3-dihydrobenzofuran-2-yl)methyl)amino)cyclohexane-1-carbonyl)-[4,4′-bipiperidin]-1-yl)-2-oxoethoxy)-4-(4-methylthiazol-5-yl)benzyl)-1-((S)-2-(1-fluorocyclopropane-1-carboxamido)-3,3-dimethylbutanoyl)-4-hydroxypyrrolidine-2-carboxamide] | 68
3 | 94 | 1340 | > 20000 | > 20000 | 3140 | 4400 | CNC(=O)c1cnc(OCCOCCOCCn2cc(-c3ccc4c(c3)CN(C3CCC(=O)NC3=O)C4=O)nn2)c(F)c1-c1c(Cl)c(F)cc2c1C[C@](c1ccccc1)([C@@H]1CCCN1)O2 (stereo partly drawn) [Example 33, 4-((2S,4S)-5-chloro-6-fluoro-2-phenyl-2-((S)-pyrrolidin-2-yl)-2,3-dihydrobenzofuran-4-yl)-6-(2-(2-(2-(4-(2-(2,6-dioxopiperidin-3-yl)-1-oxoisoindolin-5-yl)-1H-1,2,3-triazol-1-yl)ethoxy)ethoxy)ethoxy)-5-fluoro-N-methylnicotinamide] | > 20000
4 | 3.3 | 0.64 | > 2000 | > 200 | 3.8 | 13 | COc1ccc(C(N)=O)c(-c2c(Cl)c(F)cc3c2[C@H](C)[C@@](CN[C@H]2CC[C@H](C(=O)N4CCC(CC5CCN(C(=O)COc6ccc(F)c(N7CCC(=O)NC7=O)c6)CC5)CC4)CC2)(c2ccccc2)O3)c1F (atropisomer, axis not shown) [Example 29, 2-((2S,3S,4S)-5-chloro-2-((((1r,4S)-4-(4-((1-(2-(3-(2,4-dioxotetrahydropyrimidin-1(2H)-yl)-4-fluorophenoxy)acetyl)piperidin-4-yl)methyl)piperidine-1-carbonyl)cyclohexyl)amino)methyl)-6-fluoro-3-methyl-2-phenyl-2,3-dihydrobenzofuran-4-yl)-3-fluoro-4-methoxybenzamide] | 17
5 | 92 | 9.3 | 8760 | 8760 | 24 | 160 | COc1ccc(C(=O)NCCCCCc2cccc3c2CN(C2CCC(=O)NC2=O)C3=O)c(-c2c(Cl)c(F)cc3c2C[C@@](CN)(c2ccccc2)O3)c1F (stereo partly drawn) [Example 36, 2-((2S,4S)-2-(aminomethyl)-5-chloro-6-fluoro-2-phenyl-2,3-dihydrobenzofuran-4-yl)-N-(5-(2-(2,6-dioxopiperidin-3-yl)-1-oxoisoindolin-4-yl)pentyl)-3-fluoro-4-methoxybenzamide] | 8420
6 | 2.7 | 0.92 | > 2000 | > 2000 | 4.4 | 16 | COc1ccc(C(N)=O)c(-c2c(Cl)c(F)cc3c2[C@H](C)[C@@](CN[C@H]2CC[C@H](C(=O)N4CCC(CC5CCN(C(=O)COc6ccc(Cl)c(N7CCC(=O)NC7=O)c6)CC5)CC4)CC2)(c2ccccc2)O3)c1F (atropisomer, axis not shown) [Example 28, 2-((2S,3S,4S)-5-chloro-2-((((1r,4S)-4-(4-((1-(2-(4-chloro-3-(2,4-dioxotetrahydropyrimidin-1(2H)-yl)phenoxy)acetyl)piperidin-4-yl)methyl)piperidine-1-carbonyl)cyclohexyl)amino)methyl)-6-fluoro-3-methyl-2-phenyl-2,3-dihydrobenzofuran-4-yl)-3-fluoro-4-methoxybenzamide] | 31
7 | 2.6 | 1.1 | > 2000 | > 200 | 6.9 | 27 | COc1ccc(OCC(=O)N2CCC(CC3CCN(C(=O)[C@H]4CC[C@H](NC[C@]5(c6ccccc6)Oc6cc(F)c(Cl)c(-c7c(C(N)=O)ccc(OC)c7F)c6[C@@H]5C)CC4)CC3)CC2)cc1N1CCC(=O)NC1=O (atropisomer, axis not shown) [Example 30, 2-((2S,3S,4S)-5-chloro-2-((((1r,4S)-4-(4-((1-(2-(3-(2,4-dioxotetrahydropyrimidin-1(2H)-yl)-4-methoxyphenoxy)acetyl)piperidin-4-yl)methyl)piperidine-1-carbonyl)cyclohexyl)amino)methyl)-6-fluoro-3-methyl-2-phenyl-2,3-dihydrobenzofuran-4-yl)-3-fluoro-4-methoxybenzamide] | 35

Source: patent US20240382600A1, “BIFUNCTIONAL DEGRADERS COMPRISING A TEAD BINDER” (Novartis AG, priority 2021, published 2024)
